Measured values taken from patent publication US9765154B2, “Phosphohistidine analogs” (THE ROCKEFELLER UNIVERSITY, priority 2010, dated 2017).

Experiment: ionization of the phosphonate group (pK values)
Type: physicochemical
Text: [drawing 33] it is isosteric with phosphorylated histidine. Further, the electrostatics of the phosphonoltriazolylalanine mimic those of phosphorylated Histidine. In particular, the phosphonate group of N-methyl-triazolylphosphonic acid is fully ionized at physiological pH (pK1=2.3 and pKA2=5.3), analogous to pHis.

N-methyl-triazolylphosphonic acid
pK1 of the phosphonate group: 2.3
pKA2 of the phosphonate group: 5.3
